Data published in patent US6706740B2, “Fungicidal heterocyclic aromatic amides and their compositions, methods of use and preparation” (Dow AgroSciences LLC, priority 1999, dated 2004).

Each compound was assayed on Erysiphe graminis—ERYSGT (assay: Powdery Mildew of Wheat, in vivo whole plant, 24 Hour Protectant). Conditions: 100 ppm spray, wheat, 24 hour protectant, % control of fungal infection vs untreated plants.
For `CCOC(=O)Oc1c(OC)ccnc1C(=O)N[C@H]1COC(=O)[C@H](Cc2ccccc2)[C@@H](OC(=O)C(C)C)[C@H](C)OC1=O` [Compound 679], the “ERYSGT in vivo 1 Day Protectant” value was “+ +”.

Same assay, conditions: Erysiphe; 100 ppm spray, 24 hour protectant, wheat; control of fungal infection vs untreated plants; read-out: ERYSGT in vivo 1 Day Protectant
`COc1ccnc(C(=O)NC2C(=O)c3ccc(-c4ccco4)cc3OC2C)c1O` (centres unmarked) [Compound 323] was tested, and the pest or weed control at 100 ppm was < 25%. With `COc1ccnc(C(=O)NC2C[C@H](C)C[C@H](c3ccccn3)C2)c1O` (some centres unmarked) [Compound 259] the pest or weed control at 100 ppm was < 25%. With `COc1ccnc(C(=O)N[C@@H]2CC3CC2c2ccccc23)c1O` (some centres unmarked) [Compound 290] the pest or weed control at 100 ppm was 25 to 74%.

These compounds were tested on Puccinia recondita—PUCCRT (assay: Brown Rust of Wheat, in vivo whole plant, 24 Hour Protectant). Conditions: 100 ppm spray, 24 hour protectant, wheat; control of fungal infection vs untreated plants.
For `COc1ccnc(C(=O)N[C@@H]2CC3CC2c2ccccc23)c1O` (some centres unmarked) [Compound 290], the “PUCCRT in vivo 1 Day Protectant” value was “+ +”.

Same assay, conditions: 100 ppm spray, wheat, 24 hour protectant, % control of fungal infection vs untreated plants
With `CCOC(=O)Oc1c(OC)ccnc1C(=O)N[C@H]1COC(=O)[C@H](Cc2ccccc2)[C@@H](OC(=O)C(C)C)[C@H](C)OC1=O` [Compound 679] the “PUCCRT in vivo 1 Day Protectant” value was “+ +”.

Same assay, conditions: Puccinia; 100 ppm spray, 24 hour protectant, wheat; control of fungal infection vs untreated plants; read-out: PUCCRT in vivo 1 Day Protectant
Compound `COc1ccnc(C(=O)NC2C(=O)c3ccc(-c4ccco4)cc3OC2C)c1O` (centres unmarked) [Compound 323] has a pest or weed control at 100 ppm of 25 to 74%. Work on `COc1ccnc(C(=O)NC2C[C@H](C)C[C@H](c3ccccn3)C2)c1O` (some centres unmarked) [Compound 259] yielded a pest or weed control at 100 ppm of 25 to 74%.

Each compound was assayed on Ustilago maydis (USTIMA) (assay: microbe, parasite or virus in culture). Conditions: Mycosarcoma maydis, read-out: USTIMA in vitro Growth Inhibition.
Assay type: cell-based
With `CCOC(=O)Oc1c(OC)ccnc1C(=O)N[C@H]1COC(=O)[C@H](Cc2ccccc2)[C@@H](OC(=O)C(C)C)[C@H](C)OC1=O` [Compound 679] the inhibition at 25 ppm was < 80%. With `COc1ccnc(C(=O)NC2C(=O)c3ccc(-c4ccco4)cc3OC2C)c1O` (centres unmarked) [Compound 323] the inhibition at 25 ppm was < 80%. In the case of `COc1ccnc(C(=O)NC2C[C@H](C)C[C@H](c3ccccn3)C2)c1O` (some centres unmarked) [Compound 259], the inhibition at 25 ppm is reported as < 80%. In the case of `COc1ccnc(C(=O)N[C@@H]2CC3CC2c2ccccc23)c1O` (some centres unmarked) [Compound 290], the inhibition at 25 ppm is reported as < 80%.

What follows are compounds tested on Stagonospora nodorum (Leptosphaeria nodorum—LEPTNO) (assay: In vitro fungal growth inhibition, Stagonospora nodorum (LEPTNO)). Conditions: Leptosphaeria; 25 ppm in growth medium; read-out: LEPTNO in vitro Growth Inhibition.
Assay type: cell-based
For `CCOC(=O)Oc1c(OC)ccnc1C(=O)N[C@H]1COC(=O)[C@H](Cc2ccccc2)[C@@H](OC(=O)C(C)C)[C@H](C)OC1=O` [Compound 679], the inhibition at 25 ppm was < 80%. `COc1ccnc(C(=O)NC2C(=O)c3ccc(-c4ccco4)cc3OC2C)c1O` (centres unmarked) [Compound 323] was tested, and the inhibition at 25 ppm was > 80%. With `COc1ccnc(C(=O)NC2C[C@H](C)C[C@H](c3ccccn3)C2)c1O` (some centres unmarked) [Compound 259] the inhibition at 25 ppm was < 80%. With `COc1ccnc(C(=O)N[C@@H]2CC3CC2c2ccccc23)c1O` (some centres unmarked) [Compound 290] the inhibition at 25 ppm was > 80%.

The compounds below were run on Phytophthora infestans—PHYTIN (assay: whole plant or invertebrate). Conditions: Phytophthora, in Solanum lycopersicum, 24 h, read-out: PHYTIN in vivo 1 Day Protectant.
Assay type: in vivo
With `CCOC(=O)Oc1c(OC)ccnc1C(=O)N[C@H]1COC(=O)[C@H](Cc2ccccc2)[C@@H](OC(=O)C(C)C)[C@H](C)OC1=O` [Compound 679] the pest or weed control at 100 ppm was < 25%. `COc1ccnc(C(=O)NC2C(=O)c3ccc(-c4ccco4)cc3OC2C)c1O` (centres unmarked) [Compound 323] was tested, and the pest or weed control at 100 ppm was < 25%. In the case of `COc1ccnc(C(=O)NC2C[C@H](C)C[C@H](c3ccccn3)C2)c1O` (some centres unmarked) [Compound 259], the pest or weed control at 100 ppm is reported as 25 to 74%. `COc1ccnc(C(=O)N[C@@H]2CC3CC2c2ccccc23)c1O` (some centres unmarked) [Compound 290] was tested, and the pest or weed control at 100 ppm was < 25%.

What follows are compounds tested on Septoria tritici—SEPTTR (assay: Leaf Blotch of Wheat, in vivo whole plant, 24 Hour Protectant). Conditions: 100 ppm spray, 24 hour protectant, wheat; control of fungal infection vs untreated plants.
In the case of `COc1ccnc(C(=O)NC2C(=O)c3ccc(-c4ccco4)cc3OC2C)c1O` (centres unmarked) [Compound 323], the “SEPTTR in vivo 1 Day Protectant” value is reported as “+ +”.

Same assay, conditions: 100 ppm spray, wheat, 24 hour protectant, % control of fungal infection vs untreated plants
With `CCOC(=O)Oc1c(OC)ccnc1C(=O)N[C@H]1COC(=O)[C@H](Cc2ccccc2)[C@@H](OC(=O)C(C)C)[C@H](C)OC1=O` [Compound 679] the “SEPTTR in vivo 1 Day Protectant” value was “+ +”.

Same assay, conditions: Zymoseptoria tritici, 24 h, 100 ppm spray, 24 hour protectant, wheat; control of fungal infection vs untreated plants; read-out: SEPTTR in vivo 1 Day Protectant
`COc1ccnc(C(=O)NC2C[C@H](C)C[C@H](c3ccccn3)C2)c1O` (some centres unmarked) [Compound 259] was tested, and the pest or weed control at 100 ppm was 25 to 74%. `COc1ccnc(C(=O)N[C@@H]2CC3CC2c2ccccc23)c1O` (some centres unmarked) [Compound 290] showed a pest or weed control at 100 ppm of 25 to 74%.

Each compound was assayed on Phytophthora infestans (PHYTIN) (assay: microbe, parasite or virus in culture). Conditions: Phytophthora infestans, read-out: PHYTIN in vitro Growth Inhibition.
Assay type: cell-based
`CCOC(=O)Oc1c(OC)ccnc1C(=O)N[C@H]1COC(=O)[C@H](Cc2ccccc2)[C@@H](OC(=O)C(C)C)[C@H](C)OC1=O` [Compound 679] was tested, and the inhibition at 25 ppm was < 80%. With `COc1ccnc(C(=O)NC2C(=O)c3ccc(-c4ccco4)cc3OC2C)c1O` (centres unmarked) [Compound 323] the inhibition at 25 ppm was < 80%. `COc1ccnc(C(=O)NC2C[C@H](C)C[C@H](c3ccccn3)C2)c1O` (some centres unmarked) [Compound 259] was tested, and the inhibition at 25 ppm was < 80%. In the case of `COc1ccnc(C(=O)N[C@@H]2CC3CC2c2ccccc23)c1O` (some centres unmarked) [Compound 290], the inhibition at 25 ppm is reported as < 80%.

The compounds below were run on Mycosphaerella graminicola (Septoria tritici—SEPTTR) (assay: In vitro fungal growth inhibition, Mycosphaerella graminicola (SEPTTR)). Conditions: Zymoseptoria tritici; 25 ppm in growth medium; read-out: SEPTTR in vitro Growth Inhibition.
Assay type: cell-based
With `CCOC(=O)Oc1c(OC)ccnc1C(=O)N[C@H]1COC(=O)[C@H](Cc2ccccc2)[C@@H](OC(=O)C(C)C)[C@H](C)OC1=O` [Compound 679] the inhibition at 25 ppm was < 80%. In the case of `COc1ccnc(C(=O)NC2C(=O)c3ccc(-c4ccco4)cc3OC2C)c1O` (centres unmarked) [Compound 323], the inhibition at 25 ppm is reported as > 80%. In the case of `COc1ccnc(C(=O)NC2C[C@H](C)C[C@H](c3ccccn3)C2)c1O` (some centres unmarked) [Compound 259], the inhibition at 25 ppm is reported as < 80%. In the case of `COc1ccnc(C(=O)N[C@@H]2CC3CC2c2ccccc23)c1O` (some centres unmarked) [Compound 290], the inhibition at 25 ppm is reported as > 80%.

What follows are compounds tested on Magnaporthe grisea (Pyricularia oryzae—PYRIOR) (assay: microbe, parasite or virus in culture). Conditions: Pyricularia oryzae, read-out: PYRIOR in vitro Growth Inhibition.
Assay type: cell-based
`CCOC(=O)Oc1c(OC)ccnc1C(=O)N[C@H]1COC(=O)[C@H](Cc2ccccc2)[C@@H](OC(=O)C(C)C)[C@H](C)OC1=O` [Compound 679] was tested, and the inhibition at 25 ppm was > 80%. With `COc1ccnc(C(=O)NC2C(=O)c3ccc(-c4ccco4)cc3OC2C)c1O` (centres unmarked) [Compound 323] the inhibition at 25 ppm was > 80%. For `COc1ccnc(C(=O)NC2C[C@H](C)C[C@H](c3ccccn3)C2)c1O` (some centres unmarked) [Compound 259], the inhibition at 25 ppm was < 80%. For `COc1ccnc(C(=O)N[C@@H]2CC3CC2c2ccccc23)c1O` (some centres unmarked) [Compound 290], the inhibition at 25 ppm was > 80%.

The compounds below were run on Rhizoctonia solani (RHIZSO) (assay: microbe, parasite or virus in culture). Conditions: Rhizoctonia solani, read-out: RHIZSO in vitro Growth Inhibition.
Assay type: cell-based
`CCOC(=O)Oc1c(OC)ccnc1C(=O)N[C@H]1COC(=O)[C@H](Cc2ccccc2)[C@@H](OC(=O)C(C)C)[C@H](C)OC1=O` [Compound 679] was tested, and the inhibition at 25 ppm was > 80%. `COc1ccnc(C(=O)NC2C(=O)c3ccc(-c4ccco4)cc3OC2C)c1O` (centres unmarked) [Compound 323] was tested, and the inhibition at 25 ppm was > 80%. For `COc1ccnc(C(=O)NC2C[C@H](C)C[C@H](c3ccccn3)C2)c1O` (some centres unmarked) [Compound 259], the inhibition at 25 ppm was < 80%. `COc1ccnc(C(=O)N[C@@H]2CC3CC2c2ccccc23)c1O` (some centres unmarked) [Compound 290] was tested, and the inhibition at 25 ppm was > 80%.

Each compound was assayed on Leptosphaeria nodorum—LEPTNO (assay: Glume Blotch of Wheat, in vivo whole plant, 24 Hour Protectant). Conditions: 100 ppm spray, 24 hour protectant, wheat; control of fungal infection vs untreated plants.
For `COc1ccnc(C(=O)NC2C(=O)c3ccc(-c4ccco4)cc3OC2C)c1O` (centres unmarked) [Compound 323], the “LEPTNO in vivo 1 Day Protectant” value was “+ +”. `COc1ccnc(C(=O)N[C@@H]2CC3CC2c2ccccc23)c1O` (some centres unmarked) [Compound 290] was tested, and the “LEPTNO in vivo 1 Day Protectant” value was “+ +”.

Same assay, conditions: 100 ppm spray, wheat, 24 hour protectant, % control of fungal infection vs untreated plants
`CCOC(=O)Oc1c(OC)ccnc1C(=O)N[C@H]1COC(=O)[C@H](Cc2ccccc2)[C@@H](OC(=O)C(C)C)[C@H](C)OC1=O` [Compound 679] was tested, and the “LEPTNO in vivo 1 Day Protectant” value was “+ +”.

Same assay, conditions: Leptosphaeria; 100 ppm spray, 24 hour protectant, wheat; control of fungal infection vs untreated plants; read-out: LEPTNO in vivo 1 Day Protectant
`COc1ccnc(C(=O)NC2C[C@H](C)C[C@H](c3ccccn3)C2)c1O` (some centres unmarked) [Compound 259] gave a pest or weed control at 100 ppm of 25 to 74%.
